# Literature values in US20050218054A1, “Apparatus for Producing sterilized water” (priority 2002, published 2005).
# Settings: same chlorine concentration
compound,measurement,value
OCl [hypochlorous acid ion],Sterilization power relative to hypochlorous acid (HOCL),about 1/80
